Experimental data as given in EP2975030B1, “DIHYDROPYRIDAZINE-3,5-DIONE DERIVATIVE” (Chugai Seiyaku Kabushiki Kaisha, priority 2013, dated 2014).

System: rat small-intestinal brush border membrane vesicles
Experiment: Inhibitory effect on 33PO4 uptake into rat small-intestinal brush border membrane vesicles (rapid filtration method)
Type: biochemical, Wistar female rat
Conditions: 1 µM test compound; 33PO4 uptake into rat small-intestinal BBMVs, 60 seconds
In short: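 Uptake was terminated by ice-cold 110 mM NaCl, 1 mM KH2PO4, 10 mM HEPES (pH 7.5) buffer and immediate suction filtration, then washing. Using rat small-intestinal BBMVs, retained 33PO4 was quantified by liquid scintillation counting as transport activity.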

Compound | Rate of uptake inhibition (%) (1 µM)
COc1cc(CN2C(=O)C(C(=O)Nc3ccc(C(F)(F)F)cc3-c3ccc(C(F)(F)F)nc3)=C(O)[C@@]3(C)CCCN23)cc(OC)c1 [Example 202] | 75%
C[C@]12CCCN1N(Cc1cccc(F)c1F)C(=O)C(C(=O)Nc1ccc(C(F)(F)F)cc1-c1cnc3ccccc3c1)=C2O [Example 83] | 90%
C[C@]12CCCN1N(Cc1cccc(F)c1F)C(=O)C(C(=O)Nc1ccc(C(F)(F)F)cc1)=C2O [Example 89] | 67%
CN1CCC(Oc2ccc(CN3C(=O)C(C(=O)Nc4ccc(C(F)(F)F)cc4-c4cc(C(F)(F)F)ncn4)=C(O)C4(CCC4)N3C)c(F)c2F)CC1 [Example 411] | 32%
CSc1ncc(-c2cc(C(F)(F)F)ccc2NC(=O)C2=C(O)[C@@]3(C)CCCN3N(Cc3ccc(OCCN4CCOCC4)c(F)c3F)C2=O)cn1 [Example 104] | 73%
C[C@]12CCCN1N(Cc1cccc([N+](=O)[O-])c1)C(=O)C(C(=O)Nc1ccc(Br)c(F)c1)=C2O [Example 27] | 76%
C[C@]12CCCN1N(Cc1c(F)cccc1Cl)C(=O)C(C(=O)Nc1ccc(C(F)(F)F)cc1-c1ccc(C(F)(F)F)nc1)=C2O [Example 204] | 87%
COC(=O)CN(C)CCOc1ccc(CN2C(=O)C(C(=O)Nc3ccc(C(F)(F)F)cc3-c3cc(C(F)(F)F)ncn3)=C(O)C3(CCC3)N2C)c(F)c1F [Example 346] | 42%
CN1N(Cc2ccc(OCCOCCNC(=O)[C@@H](O)[C@H](O)[C@@H](O)[C@@H](O)CO)c(F)c2F)C(=O)C(C(=O)Nc2ccc(C(F)(F)F)cc2-c2cc(C(F)(F)F)ncn2)=C(O)C12CCCC2 [Example 427, 7-[[2,3-Difluoro-4-[2-[2-[[(2S,3R,4S,5S)-2,3,4,5,6-pentahydroxyhexanoyl]amino]ethoxy]ethoxy]phenyl]methyl]-10-hydroxy-6-methyl-8-oxoN-[4-(trifluoromethyl)-2-[6-(trifluoromethyl)pyrimidin-4-yl]phenyl]-6,7-diazaspiro[4.5]dec-9-ene-9-carboxamide] | 12%
CN1N(Cc2ccc(OCCN(CCO)CCO)c(F)c2F)C(=O)C(C(=O)Nc2ccc(C(F)(F)F)cc2-c2cc(C(F)(F)F)ncn2)=C(O)C12CCC2 [Example 351] | 22%
C[C@]12CCCN1N(Cc1cccc(F)c1F)C(=O)C(C(=O)Nc1ccc(C(F)(F)F)cc1-c1cncc(C#N)c1)=C2O [Example 82] | 100%
CN1N(Cc2ccc(OCCN3C4CCC3COC4)c(F)c2F)C(=O)C(C(=O)Nc2ccc(C(F)(F)F)cc2-c2cc(C(F)(F)F)ncn2)=C(O)C12CCC2 [Example 340] | 63%
CC(C)[C@H]1C(O)=C(C(=O)Nc2ccc(C(F)(F)F)cc2-c2ccc(C(F)(F)F)nc2)C(=O)N(Cc2ccc(OCCN3CCOCC3)c(F)c2F)N1C [Example 280] | 50%
CCN1[C@@H](C(C)(C)C)C(O)=C(C(=O)Nc2cc(F)c(Br)c(F)c2)C(=O)N1Cc1cccc(F)c1F [Example 246] | 52%
CN(CCOCCOCCOCCOCCOc1ccc(CN2C(=O)C(C(=O)Nc3ccc(C(F)(F)F)cc3-c3cc(C(F)(F)F)ncn3)=C(O)C3(CCCC3)N2C)c(F)c1F)C[C@@H](O)[C@H](O)[C@@H](O)[C@@H](O)CO [Example 421, 7-[[2,3-Difluoro-4-[2-[2-[2-[2-[2-[methyl-[(2R,3S,4S,5S)-2,3,4,5,6-pentahydroxyhexyl]amino]ethoxy]ethoxy]ethoxy]ethoxy]ethoxy]phenyl]methyl]-10-hydroxy-6-methyl-8-oxo-N-[4-(trifluoromethyl)-2-[6-(trifluoromethyl)pyrimidin-4-yl]phenyl]-6,7-diazaspiro[4.5]dec-9-ene-9-carboxamide] | 24%
C[C@]12CCCN1N(Cc1ccc(C#N)cc1)C(=O)C(C(=O)Nc1cc(F)c(Br)c(F)c1)=C2O [Example 222] | 97%
CN1N(Cc2ccc(OCCCCOC[C@H](O)CO)c(F)c2F)C(=O)C(C(=O)Nc2ccc(C(F)(F)F)cc2-c2ccc(C(F)(F)F)nc2)=C(O)C12CCC2 [Example 384] | 39%
CN1N(Cc2ccc(OCCN3CCC(N4CCOCC4)CC3)c(F)c2F)C(=O)C(C(=O)Nc2ccc(C(F)(F)F)cc2-c2cc(C(F)(F)F)ncn2)=C(O)C12CCCC2 [Example 374] | 42%
CN1N(Cc2cccc(F)c2F)C(=O)C(C(=O)Nc2ccc(C(F)(F)F)cc2-c2cncc(C(F)(F)F)c2)=C(O)C1(C)C [Example 305] | 66%
C[C@]12CCCN1N(Cc1cccc(F)c1F)C(=O)C(C(=O)Nc1ccc(C(F)(F)F)cc1-c1cncc(C(F)(F)F)c1)=C2O [Example 91] | 87%
C[C@]12CCCN1N(Cc1c(F)cc(C#CC3(O)CCCC3)cc1F)C(=O)C(C(=O)Nc1ccc(C(F)(F)F)cc1-c1ccc(C(F)(F)F)nc1)=C2O [Example 130] | 72%
C[C@]12CCCN1N(Cc1c(F)cc(OCCCCCCOC[C@@H](O)CO)cc1F)C(=O)C(C(=O)Nc1ccc(C(F)(F)F)cc1-c1ccc(C(F)(F)F)nc1)=C2O [Example 154] | 73%
Cc1cc(-c2cc(C(F)(F)F)ccc2NC(=O)C2=C(O)[C@@]3(C)CCCN3N(Cc3cccc(F)c3F)C2=O)cnc1C#N [Example 101] | 57%
C[C@]12CCCN1N(CCCC(F)(F)F)C(=O)C(C(=O)Nc1ccc(C(F)(F)F)cc1-c1cc(C(F)(F)F)ncn1)=C2O [Example 234, (4aR)-4-Hydroxy-4a-methyl-2-oxo-1-(4,4,4-trifluorobutyl)-N-[4-(trifluoromethyl)-2-[6-(trifluoromethyl)pyrimidin-4-yl]phenyl]-6,7-dihydro-5H-pyrrolo[1,2-b]pyridazine-3-carboxamide] | 73%
CN1N(Cc2ccc(OCCN3[C@@H]4COC[C@H]3C4)c(F)c2F)C(=O)C(C(=O)Nc2ccc(C(F)(F)F)cc2-c2cc(C(F)(F)F)ncn2)=C(O)C12CCCC2 [Example 380] | 43%
C[C@]12CCCN1N(Cc1ccc(CCCOCCCO)c(F)c1F)C(=O)C(C(=O)Nc1ccc(C(F)(F)F)cc1-c1ccc(C(F)(F)F)nc1)=C2O [Example 141] | 83%
CN1N(Cc2cccc(F)c2F)C(=O)C(C(=O)Nc2ccc(C(F)(F)F)nc2-c2ccc(C(F)(F)F)nc2)=C(O)C1(C)C [Example 304] | 51%
COC(=O)c1cccc(-c2cc(C(F)(F)F)ccc2NC(=O)C2=C(O)[C@@]3(C)CCCN3N(Cc3cccc(F)c3F)C2=O)c1OC [Example 65] | 98%

Same assay, conditions: 1 µM test compound; 33PO4 uptake into rat small-intestinal BBMVs, 60 seconds; 1 µM

Compound | Rate of uptake inhibition (%) (1 µM)
CN1N(Cc2ccc(OCCNCCS(=O)(=O)O)c(F)c2F)C(=O)C(C(=O)Nc2ccc(C(F)(F)F)cc2-c2cc(C(F)(F)F)ncn2)=C(O)C12CCCC2 [Example 435, 2-[2-[2,3-Difluoro-4-[[10-hydroxy-6-methyl-8-oxo-9-[[4-(trifluoromethyl)-2-[6-(trifluoromethyl)pyrimidin-4-yl]phenyl]carbamoyl]-6,7-diazaspiro[4.5]dec-9-en-7-yl]methyl]phenoxylethy]amino]ethanesulfonic acid] | 11%
